Data published in article PMC8318231, “Rate-of-Kill (RoK) assays to triage large compound sets for Chagas disease drug discovery: Application to GSK Chagas Box” (PLoS Neglected Tropical Diseases, 2021).

Legend:
[1] = system: H9c2 (rat cardiomyocytes); experiment: RoK assay, number of host cells nuclei (drug-related cytotoxicity, H9c2 output, Cmin_Tox); details: H9c2 host cells
Protocol: For this high-content intracellular imaging assay, H9c2 cells were seeded in 225 cm^2 T- FLASK in DMEM with 10% FBS for 4 h to allow attachment. T. cruzi trypomastigotes, collected at days 5 to 8 after infection from LLC-MK2 parasite infected cultures, were allowed to swim out for 4 h at 37°C from a centrifuged pellet (1,600 x g / 10 min). Trypomastigotes were then collected and counted in a CASY Cell Counter using the 60 μm capillary. […] Cells were washed once with PBS before incubation of the infected H9c2 monolayer with trypsin (Life-Technologies) to detach cells from the flask. Cells were counted in a CASY Cell Counter, using the 150 μm capillary, and their density set at 5 x 10^4 cells/mL in supplemented DMEM. Infected H9c2 were dispensed into 384-well plates at 50 μL per well using a Multidrop Combi dispenser. Control wells used to determine a 100% parasitic growth (full 6th column of each plate) were left untreated, whereas not infected cells were added in the control wells used as 0% parasite growth (or 100% parasite growth inhibition; full 18th column of each plate). The four plates corresponding to each RoK assay were predispensed for the same mother plate. […] Cultures were then fixed and stained with 50 μL per well of a PBS solution containing 4% formaldehyde and 2 μM DRAQ5 DNA dye (BioStatus, UK). Then plates were read in a PerkinElmer Opera Phenix using a 20x objective, 3 fields per well. DRAQ5 signal was detected using 640 nm excitation laser and a 690/50 nm emission detection filter. Automated image analysis was performed with a script developed on Acapella High Content Imaging and Analysis Software (PerkinElmer). Two outputs were provided for each sample well: (1) number of host cells nuclei to determine drug-related cytotoxicity (aka H9c2) and (2) number of amastigotes per cell as infection level measurement (aka AM/CELL). Each output is plotted as a time course for each compound at every concentration. This assay was adapted from Alonso-Padilla et al. and Peña et al..
• ME (Maximum Effect) is the maximum percentage of parasite burden reduction reached by any compound concentration. Compounds that decrease the initial parasite load will show a positive value of ME, whereas compounds that allow the progression of infection will render a negative ME value. […] It is calculated for the MCC50 (t50%_MCC50) and for the maximum concentration (t50%_Cmax). […] The value of this parameter is not either interpolated or extrapolated, and it refers to the first experimental time-course point at which a 50% of effect is reached or exceeded. • tlag defines the time elapsed for one particular concentration to reduce parasite burden between two consecutive points at any moment of the time course. It is calculated for the MCC50 (tlag_MCC50) and for the maximum concentration (tlag_Cmax). The value of this parameter is not either interpolated or extrapolated, and it refers to the first experimental time-course point of a positive slope in the normalised plot (i.e. %Cidal_Response). • Cmin_Tox (Minimal CytoToxic Concentration) is the lowest compound concentration that is reducing the number of host mammalian cells below 50% of initial cell density. Cytotoxic compounds may mislead a bona fide antiparasitic action. Therefore, this descriptor is used to flag this kind of compounds and warn about the genuine meaning of the rest of descriptors.

TcCYP51 = details: cited from earlier work; for CYP51 pIC50: formerly reported

Structure (SMILES)	Cmin_Tox [1] [µM]	CYP51 mean (TcCYP51; TcCYP51 enzyme inhibition, mean, figure 1B, ref original boxes paper)	CYP51 pIC50 (TcCYP51)
CC1CS(=O)(=O)CCN1/N=C/c1ccc([N+](=O)[O-])o1 (stereo not shown) [Nifurtimox, nifurtimox, reference compound]	>50	4.3	< 4
Cc1sc(C)c(C(F)(F)F)c1CNCCCNc1cc(=O)c2ccccc2[nH]1.Cl [TCMDC-140766]	50.0		4.7
CC(C)N(C(=O)CN1C(=O)C(N)C(=O)N(c2ccccc2)c2ccccc21)c1ccccc1 (stereo not shown) [TCMDC-143071]	>50		6.5
O=c1[nH]cnc2c([C@@H]3O[C@H](CO)[C@@H](O)[C@H]3O)n[nH]c12 [TCMDC-143083, Formycin B]	>50		< 4
COc1ccc(CN(C)Cc2ccncc2)cc1-c1ccc(S(=O)(=O)NC2CCC2)s1.O=C(O)C(F)(F)F.O=C(O)C(F)(F)F [TCMDC-143084]	>50		7.1
CN(C)Cc1ccc(-c2ccc(S(=O)(=O)NCC3CCCO3)c(F)c2)cc1.O=C(O)C(F)(F)F (stereo not shown) [TCMDC-143085]	>50		4.4
Cc1nc2nc(C)c(Cc3ccc(C(C)C)cc3)c(=O)n2[nH]1 [TCMDC-143087]	>50		< 4
COc1cc(C(C)C)c(S(C)(=O)=O)cc1C(=O)N1CCN(c2ccccc2Cl)CC1 [TCMDC-143097]	>50		< 4
COc1ccc(NS(=O)(=O)c2cccc(NC(=O)c3cc(F)cc(F)c3)c2)cc1 [TCMDC-143108]	>50		< 4
Cc1cc(N(C)C)nc(Nc2ccccc2C)n1 [TCMDC-143109]	>50		< 4
O=C1CSC(c2cccnc2)N1c1ccc(Cl)cc1Cl (stereo not shown) [TCMDC-143114]	>50		6.8
CN1CCCN(C(=O)c2ccc(N3CCCC3)cc2Cl)CC1 [TCMDC-143127]	>50		< 4
COc1ccc(C2CC(c3ccccc3Cl)=NN2C(=O)CNC(=O)C2CCC2)cc1 (stereo not shown) [TCMDC-143130]	>50		4.3
CCC(=O)Nc1ccc(-c2nc3ccc(Cl)cc3[nH]2)cc1 [TCMDC-143135]	>50		< 4
COc1ccc(-c2nc3ncccc3o2)cc1NC(=O)c1cccs1 [TCMDC-143137]	>50		< 4
Cc1nnnn1-c1cccc(C(=O)N2CCC[C@@]3(C)c4ncncc4CCC23)c1 (stereo partly shown) [TCMDC-143148]	>50		4.6
Cc1c(C#N)c([N+](=O)[O-])nn1Cc1cccc(Cl)c1Cl [TCMDC-143152]	>50		< 4
CCOc1ccc(NC(=O)C=Cc2ccc(CC)o2)cc1 [TCMDC-143160]	50.0		< 4
COc1ccc(NS(=O)(=O)c2cc(NC(=O)c3ccc([N+](=O)[O-])s3)ccc2OC)cc1 [TCMDC-143163]	>50		6
NC(=O)c1ccccc1Nc1nc(NC2CCCCC2)nc2[nH]ccc12 [TCMDC-143314]	1.9		< 4
CCCCn1nnnc1CSc1nc(C)cc(C)c1C#N [TCMDC-143315]	>50		4.3

Structure (SMILES)	Cmin_Tox [1] [µM]	CYP51 mean (TcCYP51; TcCYP51 enzyme inhibition, mean, figure 1B, ref original boxes paper)	CYP51 pIC50 (TcCYP51)
O=C(CSc1ccc(F)cc1)N[C@@H](Cc1cnc[nH]1)C(=O)NCCc1ccccc1.O=C(O)C(F)(F)F [TCMDC-143317]	>50		7.1
CCOc1cnn(C)c(=O)c1Nc1ccc(C(=O)NCc2ccc(F)cc2)cc1 [TCMDC-143319]	>50		5.4
O=C(NC1C(=O)N(c2ccccc2)C1c1cccnc1)c1ccc(Cl)s1 (stereo not shown) [TCMDC-143324]	>50		6.7
CCn1nccc1CN(C)C(=O)C=Cc1ccc(Cl)cc1 [TCMDC-143325]	>50		6.5
Cc1[nH]nc2c1C(c1ccc(OCc3ccccc3F)cc1)SCC(=O)N2 (stereo not shown) [TCMDC-143328]	>50		< 4
CCCN(Cc1ccc(OC)c(OC)c1)Cc1cc(=O)c2c(C)cc(C)cc2[nH]1 [TCMDC-143331]	>50		4.5
CC(C)(C)C(Cn1ccnc1)NC(=O)c1ccc2nc(C3CC3)oc2c1 (stereo not shown) [TCMDC-143336]	>50		7
c1ccc(CCNCc2cncc3nc(-c4cnccn4)n(C4CCCCC4)c23)cc1 [TCMDC-143346]	>50		7
CC(=O)Nc1ccc(-c2noc(CC3CCCN(Cc4cccc(F)c4C)C3)n2)cc1 (stereo not shown) [TCMDC-143362]	50.0		< 4
N#Cc1ccc(S(=O)(=O)N2CCC3(CCN(c4ccccc4)C3=O)CC2)cc1 [TCMDC-143371]	>50		< 4
CC(C)Nc1nccc(-c2c(-c3ccc(F)cc3)ncn2C2CCOCC2)n1 [TCMDC-143379]	>50		< 4
O=C(N1CCc2ccccc2CC1)C1(C(=O)N2CCC(n3c(=O)[nH]c4ncccc43)CC2)CC1.O=C(O)C(F)(F)F [TCMDC-143381]	>50		6.5
COc1ccc2ncc(=O)n(CCN3CCOC(CNCc4ccc(C(F)(F)F)cc4F)C3)c2n1 (stereo not shown) [TCMDC-143384]	>50		5
CS(=O)(=O)c1cccc(CNC(=O)c2cncc(N3CCN(c4ccc(F)cc4)CC3)c2)c1.O=C(O)C(F)(F)F.O=C(O)C(F)(F)F.O=C(O)C(F)(F)F [TCMDC-143385]	>50		4.9
O[C@H]1CC[C@H](Nc2nccc(-c3sc(C4CCOCC4)nc3-c3ccc(F)c(F)c3)n2)CC1 [TCMDC-143387]	16.7		< 4
O=C(O)C(F)(F)F.O=c1oc2ccccc2n1C1CCN(Cc2ccccc2-c2cccnc2)CC1 [TCMDC-143389]	>50		7
Cc1c(C(C)NC(=O)Nc2cccc(Cl)c2)sc2ncnn12 (stereo not shown) [TCMDC-143405]	>50		6.9
O=C(c1cccc(Cl)c1Cl)N1CCn2c1nc(-c1ccncc1)cc2=O [TCMDC-143409]	>50		7.2
CS(=O)(=O)c1cccc(-c2cnc(N)c3c(-c4ccc(CO)cc4)csc23)c1.O=C(O)C(F)(F)F [TCMDC-143410]	>50		5.5
O=C(NCCc1ccccn1)C(c1cn[nH]c1)N1CCN(c2ccc(Cl)c(Cl)c2)CC1 (stereo not shown) [TCMDC-143411]	>50		6.9
COc1cc(-c2nc(N3CCOCC3)sc2-c2ccnc(NC3CCOCC3)n2)ccc1Cl.O=C(O)C(F)(F)F [TCMDC-143414]	>50		< 4
